This note sets out measurements from patent US20250163104A1, “MACROCYCLIC IMMUNOMODULATORS” (priority 2021, published 2025).

Where a SMILES comes first, the peptide text is derived from it. Bridges are numbered along the chain shown (N, C = ends). [ ]: non-standard residue; d: D form. The star is where a group is joined. Bip = N[C@@H](Cc1ccc(-c2ccccc2)cc1)C(=O)O; Cha = N[C@@H](CC1CCCCC1)C(=O)O; Cit = NC(=O)NCCC[C@H](N)C(=O)O; Carboxymethyl = O=C(O)C*; Nle = CCCC[C@H](N)C(=O)O; Orn = NCCC[C@H](N)C(=O)O; Dab = NCC[C@H](N)C(=O)O; Dap = NC[C@H](N)C(=O)O

T1 sequence (Q15116 25-288): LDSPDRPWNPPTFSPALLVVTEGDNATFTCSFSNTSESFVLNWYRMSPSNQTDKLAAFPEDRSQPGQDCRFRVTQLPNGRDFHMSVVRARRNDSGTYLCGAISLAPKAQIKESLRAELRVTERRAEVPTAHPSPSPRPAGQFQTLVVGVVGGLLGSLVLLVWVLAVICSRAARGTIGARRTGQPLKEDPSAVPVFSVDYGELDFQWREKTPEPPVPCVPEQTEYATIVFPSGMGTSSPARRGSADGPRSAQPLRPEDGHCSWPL

This assay has as its target T1, human PD-1 / PD-L1-Ig binding on Jurkat cell line over-expressing human PD-1 (Jurkat-PD-1) (Homo sapiens, UniProt Q15116).
T1 construct: expressed in transfected cells; host or cells: Jurkat
Briefly: Jurkat-PD-1 Cell Binding High-Content Screening Assay (CBA). Type of assay: cell-based. The note with it: Jurkat-PD-1 cells, PE-labeled PD-L1-Ig 20 nM final; read-out: Jurkat HPD1_PDL1 IC50. An outline of the steps:
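Binding of fluorescent PD-L1-Ig (phycoerythrin linked via the Ig tag, 20 nM final) to PD-1-overexpressing Jurkat cells was imaged after a 2 h, 37° C compound pretreatment and 1 hour ligand incubation.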
For `CCCC[C@@H]1NC(=O)[C@H](CCCNC(=N)N)NC(=O)[C@@H](CC(C)C)NC(=O)[C@H](CCCN)NC(=O)[C@H]([C@@H](C)CC)NC(=O)[C@H](Cc2ccc(-c3ccccc3)cc2)NC(=O)[C@H](C(C)C)NC(=O)[C@H](Cc2c[nH]c3ccccc23)NC(=O)[C@H](CC(=O)O)NC(=O)[C@H](Cc2ccc(O)cc2)NC(=O)[C@H](CN)NC(=O)CSC[C@@H](C(=O)N[C@@H](C)C(N)=O)NC(=O)[C@H]([C@@H](C)O)NC(=O)[C@H](C(C)C)NC1=O` [Compound 1149] ({CH2CO}-[Dap]YDWV[Bip]I[Orn][dL]R[Nle]VTCA-NH2; thioether N-14), the IC50 came out at 47 nM. Take `CCCC[C@@H]1NC(=O)[C@H](CCCNC(=N)N)NC(=O)[C@@H](CC(C)C)NC(=O)[C@H](CCCN)NC(=O)[C@H]([C@@H](C)CC)NC(=O)[C@H](Cc2ccc(-c3ccccc3)cc2)NC(=O)[C@H](C(C)C)NC(=O)[C@H](Cc2c[nH]c3ccccc23)NC(=O)[C@H](CC(=O)O)NC(=O)[C@H](Cc2ccc(O)cc2)NC(=O)[C@H](Cc2ccc(OCC(=O)O)cc2)NC(=O)CSC[C@@H](C(=O)N[C@@H](C)C(N)=O)NC(=O)[C@H]([C@@H](C)O)NC(=O)[C@H](C(C)C)NC1=O` [Compound 1150] ({CH2CO}-Y(Carboxymethyl)YDWV[Bip]I[Orn][dL]R[Nle]VTCA-NH2; thioether N-14): the concentration for half-maximal inhibition (IC50) was determined as 48.9 nM. In the case of `CCCC[C@@H]1NC(=O)[C@H](CCCNC(=N)N)NC(=O)[C@@H](CC(C)C)NC(=O)[C@H](CCCN)NC(=O)[C@H]([C@@H](C)CC)NC(=O)[C@H](Cc2ccc(-c3ccccc3)cc2)NC(=O)[C@H](C(C)C)NC(=O)[C@H](Cc2c[nH]c3ccccc23)NC(=O)[C@H](CC(=O)O)NC(=O)[C@H](Cc2ccc(O)cc2)NC(=O)[C@H](CC(N)=O)NC(=O)CSC[C@@H](C(=O)N[C@@H](C)C(N)=O)NC(=O)[C@H]([C@@H](C)O)NC(=O)[C@H](C(C)C)NC1=O` [Compound 1151] ({CH2CO}-NYDWV[Bip]I[Orn][dL]R[Nle]VTCA-NH2; thioether N-14), the IC50 stood at 70.9 nM. The result for `CCCC[C@@H]1NC(=O)[C@H](CCCNC(=N)N)NC(=O)[C@@H](CC(C)C)NC(=O)[C@H](CCCN)NC(=O)[C@H]([C@@H](C)CC)NC(=O)[C@H](Cc2ccc(-c3ccccc3)cc2)NC(=O)[C@H](C(C)C)NC(=O)[C@H](Cc2c[nH]c3ccccc23)NC(=O)[C@H](CC(=O)O)NC(=O)[C@H](Cc2ccc(O)cc2)NC(=O)[C@H](Cc2ccccc2)NC(=O)CSC[C@@H](C(=O)N[C@@H](C)C(N)=O)NC(=O)[C@H]([C@@H](C)O)NC(=O)[C@H](C(C)C)NC1=O` [Compound 1152] ({CH2CO}-FYDWV[Bip]I[Orn][dL]R[Nle]VTCA-NH2; thioether N-14) reads 64.7 nM.

Take `CC(C)C[C@H]1NC(=O)[C@H](CCCN)NC(=O)[C@H](CCCNC(N)=O)NC(=O)[C@H](Cc2ccc(-c3ccccc3)cc2)NC(=O)[C@H](C(C)C)NC(=O)[C@H](Cc2c[nH]c3ccccc23)NC(=O)[C@H](CC(=O)O)NC(=O)[C@H](Cc2ccc(O)cc2)NC(=O)[C@H](CN)NC(=O)CSC[C@@H](C(=O)N[C@@H](C)C(N)=O)NC(=O)[C@H]([C@@H](C)O)NC(=O)[C@H](C(C)C)NC(=O)[C@H](CC2CCCCC2)NC(=O)[C@H](CCCNC(=N)N)NC1=O` [Compound 1153] ({CH2CO}-[Dap]YDWV[Bip][Cit][Orn][dL]R[Cha]VTCA-NH2; thioether N-14): the IC50 was 8.9 nM. As for `CC(C)C[C@H]1NC(=O)[C@H](CCCN)NC(=O)[C@H](CCCNC(N)=O)NC(=O)[C@H](Cc2ccc(-c3ccccc3)cc2)NC(=O)[C@H](C(C)C)NC(=O)[C@H](Cc2c[nH]c3ccccc23)NC(=O)[C@H](CC(=O)O)NC(=O)[C@H](Cc2ccc(O)cc2)NC(=O)[C@H](Cc2ccc(OCC(=O)O)cc2)NC(=O)CSC[C@@H](C(=O)N[C@@H](C)C(N)=O)NC(=O)[C@H]([C@@H](C)O)NC(=O)[C@H](C(C)C)NC(=O)[C@H](CC2CCCCC2)NC(=O)[C@H](CCCNC(=N)N)NC1=O` [Compound 1154] ({CH2CO}-Y(Carboxymethyl)YDWV[Bip][Cit][Orn][dL]R[Cha]VTCA-NH2; thioether N-14), the IC50 worked out at 9.2 nM. On to `CC(C)C[C@H]1NC(=O)[C@H](CCCN)NC(=O)[C@H](CCCNC(N)=O)NC(=O)[C@H](Cc2ccc(-c3ccccc3)cc2)NC(=O)[C@H](C(C)C)NC(=O)[C@H](Cc2c[nH]c3ccccc23)NC(=O)[C@H](CC(=O)O)NC(=O)[C@H](Cc2ccc(O)cc2)NC(=O)[C@H](CC(N)=O)NC(=O)CSC[C@@H](C(=O)N[C@@H](C)C(N)=O)NC(=O)[C@H]([C@@H](C)O)NC(=O)[C@H](C(C)C)NC(=O)[C@H](CC2CCCCC2)NC(=O)[C@H](CCCNC(=N)N)NC1=O` [Compound 1155] ({CH2CO}-NYDWV[Bip][Cit][Orn][dL]R[Cha]VTCA-NH2; thioether N-14), for which the IC50 was 7.7 nM.

With `CC(C)C[C@H]1NC(=O)[C@H](CCCN)NC(=O)[C@H](CCCNC(N)=O)NC(=O)[C@H](Cc2ccc(-c3ccccc3)cc2)NC(=O)[C@H](C(C)C)NC(=O)[C@H](Cc2c[nH]c3ccccc23)NC(=O)[C@H](CC(=O)O)NC(=O)[C@H](Cc2ccc(O)cc2)NC(=O)[C@H](Cc2ccccc2)NC(=O)CSC[C@@H](C(=O)N[C@@H](C)C(N)=O)NC(=O)[C@H]([C@@H](C)O)NC(=O)[C@H](C(C)C)NC(=O)[C@H](CC2CCCCC2)NC(=O)[C@H](CCCNC(=N)N)NC1=O` [Compound 1156] ({CH2CO}-FYDWV[Bip][Cit][Orn][dL]R[Cha]VTCA-NH2; thioether N-14), the IC50 turned out to be 20.7 nM. Take `CC(C)C[C@H]1NC(=O)[C@H](CCCN)NC(=O)[C@H](CCCNC(N)=O)NC(=O)[C@H](Cc2ccc(-c3ccccc3)cc2)NC(=O)[C@H](C(C)C)NC(=O)[C@H](Cc2c[nH]c3ccccc23)NC(=O)[C@H](CC(=O)O)NC(=O)[C@H](Cc2ccc(O)cc2)NC(=O)[C@H](CN)NC(=O)CSC[C@@H](C(=O)N[C@@H](C)C(N)=O)NC(=O)[C@H]([C@@H](C)O)NC(=O)[C@H](C(C)C)NC(=O)[C@H](CC2CCCCC2)NC(=O)[C@H](CCN)NC1=O` [Compound 1157]: the IC50 was 10.6 nM.

As for `CCCC[C@@H]1NC(=O)[C@H](CCN)NC(=O)[C@@H](CC(C)C)NC(=O)[C@H](CCCN)NC(=O)[C@H](CCCNC(N)=O)NC(=O)[C@H](Cc2ccc(-c3ccccc3)cc2)NC(=O)[C@H](C(C)C)NC(=O)[C@H](Cc2c[nH]c3ccccc23)NC(=O)[C@H](CC(=O)O)NC(=O)[C@H](Cc2ccc(O)cc2)NC(=O)[C@H](CN)NC(=O)CSC[C@@H](C(=O)N[C@@H](C)C(N)=O)NC(=O)[C@H]([C@@H](C)O)NC(=O)[C@H](C(C)C)NC1=O` [Compound 1158] ({CH2CO}-[Dap]YDWV[Bip][Cit][Orn][dL][Dab][Nle]VTCA-NH2; thioether N-14), the IC50 is 73.1 nM.

Regarding `CC[C@H](C)[C@@H]1NC(=O)[C@H](Cc2ccc(-c3ccccc3)cc2)NC(=O)[C@H](C(C)C)NC(=O)[C@H](Cc2c[nH]c3ccccc23)NC(=O)[C@H](CC(=O)O)NC(=O)[C@H](Cc2ccc(O)cc2)NC(=O)[C@H](CN)NC(=O)CSC[C@@H](C(=O)N[C@@H](C)C(N)=O)NC(=O)[C@H]([C@@H](C)O)NC(=O)[C@H](C(C)C)NC(=O)[C@H](CC2CCCCC2)NC(=O)[C@H](CCN)NC(=O)[C@@H](CC(C)C)NC(=O)[C@H](CCCN)NC1=O` [Compound 1159], the 50% inhibitory concentration (IC50) worked out at 8.1 nM.
